The text below walks through data of ChEMBL document CHEMBL1909046, “DrugMatrix in vitro pharmacology data”.

Assay [1] can be described thus: DRUGMATRIX: Serotonin (5-Hydroxytryptamine) 5-HT3 radioligand binding (ligand: [3H] GR-65630). Type of assay: cell membranes, Membrane. To be noted: hek293, Not Active = under 50% inhibition at 10 µM.
Assay [2] is described as follows: DRUGMATRIX: Phosphodiesterase PDE3 enzyme inhibition (substrate: [3H]cAMP + cAMP). Type of assay: tissue-based, Homo sapiens. Conditions: platelet, Not Active = under 50% inhibition at 10 µM.
For a further assay, the target named is Nitric oxide synthase 1 (Rattus norvegicus, UniProt P29476). Type of assay: tissue-based, Cerebellum. Further: in other assays of this panel Not Active means under 50% inhibition at 10 µM.
Chain of Nitric oxide synthase 1 (P29476 whole entry): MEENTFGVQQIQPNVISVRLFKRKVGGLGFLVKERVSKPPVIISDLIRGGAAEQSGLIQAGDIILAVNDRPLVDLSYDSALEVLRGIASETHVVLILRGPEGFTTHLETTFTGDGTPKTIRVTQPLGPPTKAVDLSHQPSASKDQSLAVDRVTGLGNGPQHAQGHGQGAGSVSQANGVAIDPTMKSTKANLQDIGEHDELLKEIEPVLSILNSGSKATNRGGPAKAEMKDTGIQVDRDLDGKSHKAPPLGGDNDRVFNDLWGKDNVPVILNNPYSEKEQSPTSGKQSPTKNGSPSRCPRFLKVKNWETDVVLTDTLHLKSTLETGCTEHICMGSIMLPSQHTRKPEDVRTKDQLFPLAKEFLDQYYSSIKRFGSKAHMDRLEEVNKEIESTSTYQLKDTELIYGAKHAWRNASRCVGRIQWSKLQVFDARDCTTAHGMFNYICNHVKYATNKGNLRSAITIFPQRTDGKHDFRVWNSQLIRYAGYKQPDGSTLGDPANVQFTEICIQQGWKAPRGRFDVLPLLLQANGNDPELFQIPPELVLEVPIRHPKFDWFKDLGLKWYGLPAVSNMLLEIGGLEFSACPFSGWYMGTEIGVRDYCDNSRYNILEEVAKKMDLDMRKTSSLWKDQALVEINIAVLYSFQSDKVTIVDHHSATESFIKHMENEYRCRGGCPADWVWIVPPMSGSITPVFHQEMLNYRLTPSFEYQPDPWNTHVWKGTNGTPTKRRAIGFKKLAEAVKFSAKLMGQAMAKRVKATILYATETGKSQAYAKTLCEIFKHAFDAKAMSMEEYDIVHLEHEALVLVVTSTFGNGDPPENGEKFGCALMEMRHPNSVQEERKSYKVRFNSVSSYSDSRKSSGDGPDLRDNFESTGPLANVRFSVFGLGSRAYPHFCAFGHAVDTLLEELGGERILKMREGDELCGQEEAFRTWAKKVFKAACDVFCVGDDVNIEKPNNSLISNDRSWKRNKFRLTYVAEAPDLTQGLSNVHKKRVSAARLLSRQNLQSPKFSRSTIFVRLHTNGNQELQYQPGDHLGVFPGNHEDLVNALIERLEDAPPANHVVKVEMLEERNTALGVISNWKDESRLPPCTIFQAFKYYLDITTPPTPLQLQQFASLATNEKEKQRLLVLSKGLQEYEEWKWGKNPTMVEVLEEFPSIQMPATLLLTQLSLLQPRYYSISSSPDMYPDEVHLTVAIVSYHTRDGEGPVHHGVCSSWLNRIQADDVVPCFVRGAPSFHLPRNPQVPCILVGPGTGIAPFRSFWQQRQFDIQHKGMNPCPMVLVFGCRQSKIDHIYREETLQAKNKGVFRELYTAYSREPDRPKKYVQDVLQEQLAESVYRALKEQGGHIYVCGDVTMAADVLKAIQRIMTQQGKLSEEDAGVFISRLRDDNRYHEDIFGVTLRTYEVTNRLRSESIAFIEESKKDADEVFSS
Assay [3] deals with Beta-2 adrenergic receptor (Homo sapiens, UniProt P07550). Put plainly: DRUGMATRIX: Adrenergic beta2 radioligand binding (ligand: [3H] CGP-12177). Type of assay: cell membranes, CHO, Membrane. Conditions: Not Active = under 50% inhibition at 10 µM.
Chain of Beta-2 adrenergic receptor (P07550 whole entry): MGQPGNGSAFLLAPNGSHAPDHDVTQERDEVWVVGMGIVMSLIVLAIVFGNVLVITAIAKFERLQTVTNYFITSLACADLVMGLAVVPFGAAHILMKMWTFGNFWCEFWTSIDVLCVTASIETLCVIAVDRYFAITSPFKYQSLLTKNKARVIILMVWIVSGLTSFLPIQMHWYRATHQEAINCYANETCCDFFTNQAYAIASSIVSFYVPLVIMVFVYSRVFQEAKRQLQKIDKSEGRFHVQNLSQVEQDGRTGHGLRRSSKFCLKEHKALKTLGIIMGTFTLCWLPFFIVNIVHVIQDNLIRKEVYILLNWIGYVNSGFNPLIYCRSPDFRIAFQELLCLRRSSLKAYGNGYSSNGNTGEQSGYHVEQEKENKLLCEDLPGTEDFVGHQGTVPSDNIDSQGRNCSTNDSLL
The target of the next assay is T1, Substance-K receptor (Homo sapiens, UniProt P21452). Further: in other assays of this panel Not Active means under 50% inhibition at 10 µM.
T1 sequence (P21452 whole entry): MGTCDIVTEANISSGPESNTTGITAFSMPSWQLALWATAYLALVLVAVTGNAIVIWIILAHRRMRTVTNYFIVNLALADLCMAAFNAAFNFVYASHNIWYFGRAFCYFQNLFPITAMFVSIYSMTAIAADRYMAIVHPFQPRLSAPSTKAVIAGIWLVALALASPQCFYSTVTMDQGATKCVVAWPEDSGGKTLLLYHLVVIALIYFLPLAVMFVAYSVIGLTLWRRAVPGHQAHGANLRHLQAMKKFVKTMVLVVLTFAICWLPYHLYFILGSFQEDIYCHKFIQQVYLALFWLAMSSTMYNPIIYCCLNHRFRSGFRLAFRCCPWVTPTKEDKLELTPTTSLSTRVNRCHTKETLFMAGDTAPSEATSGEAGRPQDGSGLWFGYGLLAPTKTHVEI
Type of assay: cell membranes, CHO, Membrane. To be noted: for Ki: read-out: Ki.

The next assay concerns the target Glycine receptor (Rattus norvegicus, UniProt P22771+P24524+P07727+P20781). Type of assay: cell membranes, Wistar, Spinal cord, Membrane. Further: in other assays of this panel Not Active means under 50% inhibition at 10 µM.

SMILES strings stand for the structures.

One may read the IC50 as the concentration that inhibits the measured activity by half. Broadly, the Ki is the dissociation constant of the complex between target and ligand, obtained from inhibition or displacement. Consider `CC[C@H](C)[C@@H](CO[C@@H](Cc1ccccc1)C(=O)N[C@@H](CCS(C)(=O)=O)C(=O)OC(C)C)NC[C@@H](N)CS`, for which the IC50 result was “Not Active” in assay [1]; “Not Active” in assay [2]; “Not Active” on Nitric oxide synthase 1; “Not Active” in assay [3] (cho); 1610 nM at Substance-K receptor (read-out: IC50); “Not Active” at Glycine receptor. The Ki result is “Not Active” in assay [1], “Not Active” in assay [2] and 536 nM at Substance-K receptor.

Regarding `Nc1nc(N)c2nc(-c3ccccc3)c(N)nc2n1`, the IC50 result (in assay [1]; in assay [2]; against Nitric oxide synthase 1; in assay [3] (cho); against Substance-K receptor (cho); at Glycine receptor) was “Not Active” each time. Moreover, the Ki result in assay [1] and in assay [2] was “Not Active” throughout.

For `CCN(CC)C(=S)SSC(=S)N(CC)CC`, the IC50 entry (in assay [1]; in assay [2]; against Nitric oxide synthase 1; in assay [3] (cho); against Substance-K receptor (cho); against Glycine receptor) was “Not Active” each time. For the same compound, the Ki entry in assay [1] and in assay [2] was “Not Active” each time.

`CN(C)CCC=C1c2ccccc2COc2ccccc21` [DOXEPIN]: the IC50 result against Nitric oxide synthase 1, on Substance-K receptor (cho) and against Glycine receptor was “Not Active” throughout.

Consider `O=C(c1ccccc1)c1ccc2n1CCC2C(=O)O` (stereo not given) [KETOROLAC], for which the IC50 result (in assay [1]; in assay [2]; against Nitric oxide synthase 1; in assay [3] (cho); on Substance-K receptor (cho); against Glycine receptor) was “Not Active” each time. The Ki entry in assay [1] and in assay [2] was “Not Active” each time.

As for `CCOC(=O)C1=C(C)NC(C)=C(C(=O)OCC)C1c1ccccc1/C=C/C(=O)OC(C)(C)C` [LACIDIPINE], the half-maximal inhibitory concentration (IC50) result (in assay [1]; in assay [2]; on Nitric oxide synthase 1; in assay [3] (cho); at Substance-K receptor (cho); on Glycine receptor) was “Not Active” each time. Also, the Ki result in assay [1] and in assay [2] was “Not Active” each time.

Consider `CC(O)C(=O)O` (stereo not given) [LACTIC ACID], for which the IC50 result (in assay [1]; in assay [2]; against Nitric oxide synthase 1; in assay [3] (cho); on Substance-K receptor (cho); against Glycine receptor) was “Not Active” each time. Besides, the Ki entry in assay [1] and in assay [2] was “Not Active” throughout.

Consider `CC(C)(C)NC[C@H](O)COc1cccc2c1CCCC2=O` [LEVOBUNOLOL], for which the IC50 entry in assay [1] was “Not Active”; in assay [2] it was “Not Active”; against Nitric oxide synthase 1, “Not Active”; in assay [3] (read-out: IC50), 0.793 nM; against Substance-K receptor (cho) it was “Not Active”; on Glycine receptor it was “Not Active”. Besides, the Ki result in assay [1] is “Not Active”; in assay [2] it was “Not Active”; in assay [3] (read-out: Ki), 0.546 nM.

With `CO[C@@H]1[C@@H](OC)[C@H](C)[C@@](O)(CC(=O)O)O[C@H]1[C@H](C)[C@H]1O[C@@]2(CC[C@@](C)([C@H]3CC[C@@](C)([C@@H]4O[C@@H]([C@H]5O[C@](C)(O)[C@H](C)C[C@@H]5C)C[C@@H]4O[C@@H]4C[C@H](OC)[C@@H](OC)[C@H](C)O4)O3)O2)C[C@H](O)[C@H]1C.N` [MADURAMICIN], the IC50 result (in assay [1]; in assay [2]; against Nitric oxide synthase 1; in assay [3] (cho); against Substance-K receptor (cho); on Glycine receptor) was “Not Active” throughout. Also, the Ki entry in assay [1] and in assay [2] was “Not Active” in each case.

As to `OC[C@@H](O)[C@@H](O)[C@H](O)[C@H](O)CO` [MANNITOL], the IC50 entry (in assay [1]; in assay [2]; on Nitric oxide synthase 1; in assay [3] (cho); on Substance-K receptor (cho); on Glycine receptor) was “Not Active” each time. In addition, the Ki result in assay [1] and in assay [2] was “Not Active” each time.

With `CNCCCC12CCC(c3ccccc31)c1ccccc12` [MAPROTILINE], the IC50 result (on Nitric oxide synthase 1; in assay [3] (cho); against Substance-K receptor (cho); against Glycine receptor) was “Not Active” throughout.

With `COC(=O)Nc1nc2ccc(C(=O)c3ccccc3)cc2[nH]1` [MEBENDAZOLE], the IC50 entry (in assay [1]; in assay [2]; against Nitric oxide synthase 1; in assay [3] (cho); on Substance-K receptor (cho); against Glycine receptor) was “Not Active” in each case. In addition, the Ki result in assay [1] and in assay [2] was “Not Active” throughout.

`Cc1ccc(Cl)c(Nc2ccccc2C(=O)O)c1Cl` [MECLOFENAMIC ACID]: the 50% inhibitory concentration (IC50) result (in assay [1]; in assay [2]; at Nitric oxide synthase 1; in assay [3] (cho); on Substance-K receptor (cho); against Glycine receptor) was “Not Active” in each case. Also, the Ki result in assay [1] and in assay [2] was “Not Active” throughout.

For the compound `CC(=O)O[C@]1(C(C)=O)CC[C@H]2[C@@H]3C[C@H](C)C4=CC(=O)CC[C@]4(C)[C@H]3CC[C@@]21C` [MEDROXYPROGESTERONE ACETATE], the IC50 entry (in assay [1]; in assay [2]; against Nitric oxide synthase 1; in assay [3] (cho); on Substance-K receptor (cho); on Glycine receptor) was “Not Active” throughout. Also, the Ki result in assay [1] and in assay [2] was “Not Active” throughout.

On to `Cc1cnc(NC(=O)C2=C(O)c3ccccc3S(=O)(=O)N2C)s1` [MELOXICAM], for which the half-inhibitory concentration (IC50) entry (in assay [1]; in assay [2]; against Nitric oxide synthase 1; in assay [3] (cho); against Substance-K receptor (cho); at Glycine receptor) was “Not Active” throughout. Besides, the Ki result in assay [1] and in assay [2] was “Not Active” in each case.

For the compound `CN1C[C@H](CNC(=O)OCc2ccccc2)C[C@@H]2c3cccc4c3c(cn4C)C[C@H]21` [METERGOLINE], the IC50 entry in assay [1] is “Not Active”; in assay [2], “Not Active”; against Nitric oxide synthase 1 it was “Not Active”; in assay [3] (cho), “Not Active”; at Substance-K receptor (read-out: IC50), 4070 nM; on Glycine receptor it was “Not Active”. Also, the inhibitory constant (Ki) result in assay [1] was “Not Active”; in assay [2] it was “Not Active”; at Substance-K receptor it was 1360 nM.

Consider `C[N+]1(C)[C@@H]2C[C@@H](OC(=O)[C@H](CO)c3ccccc3)C[C@H]1[C@@H]1O[C@@H]12.[Br-]` [METHSCOPOLAMINE BROMIDE], for which the IC50 result (in assay [1]; in assay [2]; on Nitric oxide synthase 1; in assay [3] (cho); against Substance-K receptor (cho); at Glycine receptor) was “Not Active” throughout. Also, the Ki entry in assay [1] and in assay [2] was “Not Active” each time.

For the compound `CCN(CC)CCNC(=O)c1cc(Cl)c(N)cc1OC` [METOCLOPRAMIDE], the IC50 is 4010 nM in assay [1] (read-out: IC50); “Not Active” in assay [2]; “Not Active” at Nitric oxide synthase 1; “Not Active” in assay [3] (cho); “Not Active” on Substance-K receptor (cho); “Not Active” against Glycine receptor. Also, the values for the Ki in assay [1] (read-out: Ki) and in assay [2] were 902 nM and “Not Active”, respectively.

`CC[C@H](C)C(=O)O[C@H]1CCC=C2C=C[C@H](C)[C@H](CC[C@@H]3C[C@@H](O)CC(=O)O3)[C@H]21` [MEVASTATIN]: the IC50 entry (in assay [1]; in assay [2]; against Nitric oxide synthase 1; in assay [3] (cho); at Substance-K receptor (cho); against Glycine receptor) was “Not Active” each time. The Ki result in assay [1] and in assay [2] was “Not Active” in each case.

For the compound `CC#C[C@]1(O)CC[C@H]2[C@@H]3CCC4=CC(=O)CCC4=C3[C@@H](c3ccc(N(C)C)cc3)C[C@@]21C` [MIFEPRISTONE], the IC50 result (in assay [1]; in assay [2]; on Nitric oxide synthase 1; in assay [3] (cho); on Substance-K receptor (cho); at Glycine receptor) was “Not Active” each time. Further, the Ki result in assay [1] and in assay [2] was “Not Active” throughout.

Regarding `Cc1[nH]c(=O)c(C#N)cc1-c1ccncc1` [MILRINONE], the IC50 result in assay [1] is “Not Active”; in assay [2] (read-out: IC50) it was 958 nM; at Nitric oxide synthase 1, “Not Active”; in assay [3] (cho) it was “Not Active”; at Substance-K receptor (cho), “Not Active”; against Glycine receptor it was “Not Active”. The Ki entry in assay [1] is reported as “Not Active”.

With `Cc1cc2c(s1)Nc1ccccc1N=C2N1CCN(C)CC1` [OLANZAPINE], the IC50 result (against Nitric oxide synthase 1; in assay [3] (cho); at Substance-K receptor (cho); against Glycine receptor) was “Not Active” each time.
